In patent US20210255184A1, “Biosensor Device and Methods” (The New Zealand Institute for Plant and Food Research …, priority 2018, published 2021):
Entries after “also recorded” stand apart in the source; their conditions may differ.

Assays:
Or10a = molecular target: T1, Or10a (Drosophila melanogaster, UniProt Q9VYZ1); test: QCM-D sensor, Or10a liposomes; assay type: biochemical; details: 1.6 to 1000 μM in PBS with 1% DMSO
T1 construct: his-tag; made in house; host or cells: baculovirus-infected Sf9 cells
T1 sequence (Q9VYZ1 1-406): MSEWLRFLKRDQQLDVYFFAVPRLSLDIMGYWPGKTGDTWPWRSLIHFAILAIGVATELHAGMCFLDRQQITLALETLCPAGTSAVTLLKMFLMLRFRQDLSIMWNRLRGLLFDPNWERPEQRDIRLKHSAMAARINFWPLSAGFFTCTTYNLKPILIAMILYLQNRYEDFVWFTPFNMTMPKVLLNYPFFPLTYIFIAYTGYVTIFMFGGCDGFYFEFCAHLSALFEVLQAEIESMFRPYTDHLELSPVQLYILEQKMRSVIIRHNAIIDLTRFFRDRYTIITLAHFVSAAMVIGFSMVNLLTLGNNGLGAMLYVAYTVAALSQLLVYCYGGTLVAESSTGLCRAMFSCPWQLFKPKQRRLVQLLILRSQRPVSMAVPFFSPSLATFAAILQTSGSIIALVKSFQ
Description: Gold (100 nm) sensor crystals were sonicated in ethanol and milli-Q water for 15 minutes each respectively. A 5:1:1 volume ratio of milli-Q water, ammonia (25%), and hydrogen peroxide (30%) was heated to 75° C. for 5 minutes and the sonicated crystals were placed in the heated solution for 5 minutes. Then the crystals were removed from the solution and rinsed with milli-Q water before drying with nitrogen gas. The clean gold crystals were thiol-functionalized by exposing them to 2 mM ethanolic solution of MHA overnight followed by washing with ethanol solution in order to remove excess or loosely bound molecules. NHS/EDC was prepared using 2:1 mol:mol ratio of EDC:NHS (100 mM EDC, 50 mM NHS) in 2 ml PBS (pH=6.5) solution. Each OrX/liposome stock solution was diluted 100 fold for QCM-D measurements in PBS buffer solution (pH=7.4). The SAM functionalized crystals were then placed into the Q-sense analyser instrument (Biolin Scientific) chamber and flowed with the NHS/EDC, Or10a/liposomes or Or10a/Orco liposomes, and various concentrations of methyl hexanoate (1.6 μM, 8 μM, 20 μM, 40 μM, 100 μM, 200 μM, 500 μM and 1000 μM) in PBS buffer solution containing 1% DMSO to measure the changes in frequency (Δf) and dissipation (ΔD) values.

Orco = molecular target: T2, Orco (Drosophila melanogaster, UniProt Q9VNB5); test: EIS sensor, Orco liposomes (specificity control); assay type: biochemical; details: Orco only liposomes
T2 construct: his-tag; made in house; host or cells: baculovirus-infected Sf9 cells
T2 sequence (Q9VNB5 1-486): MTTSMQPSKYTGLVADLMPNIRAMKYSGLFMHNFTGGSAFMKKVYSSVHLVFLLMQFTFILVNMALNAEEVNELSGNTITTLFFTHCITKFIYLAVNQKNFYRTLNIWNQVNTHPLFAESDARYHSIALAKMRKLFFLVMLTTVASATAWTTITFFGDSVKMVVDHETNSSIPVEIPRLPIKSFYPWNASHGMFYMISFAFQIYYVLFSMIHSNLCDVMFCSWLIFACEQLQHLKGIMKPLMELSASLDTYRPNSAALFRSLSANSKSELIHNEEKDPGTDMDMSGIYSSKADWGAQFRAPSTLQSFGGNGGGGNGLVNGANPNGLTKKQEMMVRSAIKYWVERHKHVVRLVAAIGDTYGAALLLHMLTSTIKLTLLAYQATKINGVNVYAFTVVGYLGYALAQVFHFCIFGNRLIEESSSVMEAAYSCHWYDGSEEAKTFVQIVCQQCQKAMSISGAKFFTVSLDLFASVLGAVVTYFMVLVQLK
Description: Prior to their use, liposomes were defrosted on ice and then destabilized by incubating with 0.2% CHAPS for 15 min at room temperature. Then 200 μg of purified odorant receptor^28 was added to 1 mg of liposomes and rotated at 10 rpm for 1 h at room temperature. Excess detergent was removed by four additions of 25 mg of Bio-Beads SM-2 (Bio-Rad, USA) and incubation at 4° C. for 30 min, 2 h, overnight and a further 2 h respectively. The Bio-Beads were removed after each incubation period. The OrX or OrX/Orco integrated liposomes were pelleted by centrifugation at 100,000 g for 1 h, and were resuspended in 500 μL of rehydration buffer. Integration of OrXs and Orco into liposomes was assessed by density gradient ultracentrifugation (DGU) using Accudenz (Accurate Chemical & Scientific Corporation, USA). The integrated liposomes were brought to 40% Accudenz by the addition of an equal volume of 80% Accudenz solution, placed at the bottom of an ultra-centrifugation tube, and overlaid with 30% Accudenz solution, and DGU buffer (25 mM HEPES pH 7.5, 100 mM NaCl, 10% glycerol). The sample was then centrifuged at 100,000 g for 4 h at 4° C. […]
PBS solution was prepared by immersing one tablet of PBS in 200 ml of milli-Q water (according to manufacturers instructions) and filtered using 0.2-μm syringe filter. The pH of the prepared buffer solution was measured with a pH meter. […]

## CCCCCC(=O)OC [methyl hexanoate]
Or10a
  change in oscillation frequency on ligand exposure: negligible response; also recorded: not observed
Orco
  sensor response to ligand: negligible response

## COC(=O)c1ccccc1O [methyl salicylate]
Or10a
  change in oscillation frequency on ligand exposure: increase in the frequency
Orco
  sensor response to ligand: negligible response
